Results reported in ChEMBL document CHEMBL5728724, “6-aryl-7-substituted-3-(1H-pyrazol-5-yl)-7H-[1,2,4]triazolo[3,4-b][1,3,4]thiadiazines as inhibitors of the STAT3 pathway with anti-proliferative activity” (2021).

Biological target: T1, Signal transducer and activator of transcription 1-alpha/beta (Homo sapiens, UniProt P42224)
T1 sequence (P42224 whole entry): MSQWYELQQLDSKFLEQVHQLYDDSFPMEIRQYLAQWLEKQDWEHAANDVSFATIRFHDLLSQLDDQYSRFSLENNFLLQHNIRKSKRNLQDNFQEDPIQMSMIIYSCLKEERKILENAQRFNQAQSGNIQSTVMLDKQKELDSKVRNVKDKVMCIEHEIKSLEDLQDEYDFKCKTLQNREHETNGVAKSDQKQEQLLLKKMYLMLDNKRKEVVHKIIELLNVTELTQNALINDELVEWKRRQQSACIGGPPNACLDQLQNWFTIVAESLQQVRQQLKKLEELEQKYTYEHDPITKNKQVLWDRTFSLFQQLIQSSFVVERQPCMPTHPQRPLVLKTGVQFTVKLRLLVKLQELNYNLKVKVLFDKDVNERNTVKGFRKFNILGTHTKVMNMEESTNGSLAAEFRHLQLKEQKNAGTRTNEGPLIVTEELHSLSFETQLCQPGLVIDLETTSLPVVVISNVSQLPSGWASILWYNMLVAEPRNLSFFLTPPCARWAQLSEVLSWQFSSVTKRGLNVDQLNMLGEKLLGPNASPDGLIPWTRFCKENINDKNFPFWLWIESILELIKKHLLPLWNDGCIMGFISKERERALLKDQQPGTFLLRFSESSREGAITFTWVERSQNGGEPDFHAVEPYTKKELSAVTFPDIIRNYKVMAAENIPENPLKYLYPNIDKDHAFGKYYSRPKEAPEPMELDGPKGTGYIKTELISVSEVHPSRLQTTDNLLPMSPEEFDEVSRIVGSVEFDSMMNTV
Assay: Bioassay: Compound samples (in 3-5 mg quantities) were evaluated in a variety of assays. All compound submissions were fully characterized (1H, 13C, IR, FIRMS), satisfied purity criteria (≥95% LC/MC, ELS).

SMILES: COc1ccc(C2=Nn3c(nnc3-c3[nH]nc4c3CCC4)SC2C)cc1 (centres undefined)
- IC50: > 50 µM

SMILES: c1cc(C2=Nn3c(nnc3-c3[nH]nc4c3CCC4)SC2)ccn1
- IC50: > 50 µM

SMILES: c1ccc(C2=Nn3c(nnc3-c3[nH]nc4c3CCC4)SC2)cc1
- IC50: > 50 µM

SMILES: C1=Nn2c(nnc2-c2cc(-c3ccccc3)n[nH]2)SC1
- IC50: > 50 µM

SMILES: CC1=Nn2c(nnc2-c2cc(-c3ccccc3)[nH]n2)SC1
- IC50: > 50 µM

SMILES: Clc1ccc(C2=Nn3c(nnc3-c3[nH]nc4c3CCC4)SC2)cc1
- IC50: > 50 µM

SMILES: CC1=Nn2c(nnc2-c2[nH]nc3c2CCC3)SC1
- IC50: > 50 µM

SMILES: C1=Nn2c(nnc2-c2[nH]nc3c2CCC3)SC1
- IC50: > 50 µM

SMILES: c1ccc(-c2cc(-c3nnc4n3N=C(C3CCCCC3)CS4)[nH]n2)cc1
- IC50: > 50 µM

SMILES: CC1Sc2nnc(-c3cc(-c4ccc(F)cc4)n[nH]3)n2N=C1c1ccccc1 (centres undefined)
- IC50: > 30 µM

SMILES: C1CCC(C2=Nn3c(nnc3-c3[nH]nc4c3CCC4)SC2)CC1
- IC50: > 50 µM

SMILES: Clc1ccc(C2=Nn3c(nnc3-c3cc(-c4ccccc4)n[nH]3)SC2)s1
- IC50: > 50 µM

SMILES: c1ccc(C2=Nn3c(nnc3-c3cc(-c4ccccc4)[nH]n3)SC2)cc1
- IC50: > 50 µM

SMILES: Clc1ccc(C2=Nn3c(nnc3-c3[nH]nc4c3CCC4)SC2)s1
- IC50: > 50 µM

SMILES: COc1ccc(C2=Nn3c(nnc3-c3cc(-c4ccc(F)cc4)n[nH]3)SC2C)cc1 (centres undefined)
- IC50: > 30 µM

SMILES: c1ccc(-c2cc(-c3nnc4n3N=C(c3ccncc3)CS4)[nH]n2)cc1
- IC50: > 50 µM

SMILES: Clc1ccc(C2=Nn3c(nnc3-c3cc(-c4ccccc4)n[nH]3)SC2)cc1Cl
- IC50: > 50 µM

SMILES: CC(C)C1Sc2nnc(-c3[nH]nc4c3CCC4)n2N=C1c1ccc(Cl)c(Cl)c1 (centres undefined)
- IC50: > 50 µM

SMILES: COc1ccc(C2=Nn3c(nnc3-c3[nH]nc4c3CCC4)SC2C(C)C)cc1 (centres undefined)
- IC50: > 50 µM
